pIC50: −log10 of the molar value.
System: SYO-1 complex spheroid growth, percent test/control
Assay: Anticancer human tumor SYO-1 cell line growth inhibition [Asc];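 note: compound exposure lasted 7 days after spheroids grew 3 days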;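 for viability, T/C: 100% = DMSO vehicle control viability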
Conditions: for pIC50: curve of first compound; for viability, T/C: stronger effect = lower value
Procedure, shortened: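 Complex solid-tumor spheroids incorporating human endothelial and mesenchymal stem cells received single agents or combinations over half-log dilution ranges anchored to clinical Cmax.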

[1] = second compound 0.0316 µM, first compound 0.0316 µM
[2] = second compound 0.0316 µM, first compound 0.1 µM
[3] = second compound 0.0316 µM, first compound 0.316 µM
[4] = second compound 0.0316 µM, first compound 1 µM
[5] = second compound 0.1 µM, first compound 0.0316 µM
[6] = second compound 0.1 µM, first compound 0.1 µM
[7] = second compound 0.1 µM, first compound 0.316 µM
[8] = second compound 0.1 µM, first compound 1 µM
[9] = second compound 0.316 µM, first compound 0.0316 µM
[10] = second compound 0.316 µM, first compound 0.1 µM
[11] = second compound 0.316 µM, first compound 0.316 µM
[12] = second compound 0.316 µM, first compound 1 µM
[13] = second compound 1 µM, first compound 0.0316 µM
[14] = second compound 1 µM, first compound 0.1 µM
[15] = second compound 1 µM, first compound 0.316 µM
[16] = second compound 1 µM, first compound 1 µM
[17] = second compound 3.16 µM, first compound 0.0316 µM
[18] = second compound 3.16 µM, first compound 0.1 µM
[19] = second compound 3.16 µM, first compound 0.316 µM
[20] = second compound 3.16 µM, first compound 1 µM
[21] = second compound 10 µM, first compound 0.0316 µM
[22] = second compound 10 µM, first compound 0.1 µM
[23] = second compound 10 µM, first compound 0.316 µM
[24] = second compound 10 µM, first compound 1 µM

## CNC(C)C(=O)NC1CN(S(=O)(=O)c2cccc(S(=O)(=O)N3CCC4CCC(C(=O)NC(c5ccccc5)c5ccccc5)N4C(=O)C(NC(=O)C(C)NC)C3)c2)CCC2CCC(C(=O)NC(c3ccccc3)c3ccccc3)N2C1=O (centres undefined) + Cc1c(S(C)(=O)=O)c(-c2cc(F)cc(N3CCN(c4ccc(NS(=O)(=O)c5ccc(NC(CCN6CCC(C(=O)OCCCP(=O)(O)O)CC6)CSc6ccccc6)c(S(=O)(=O)C(F)(F)F)c5)cc4)CC3)c2)c(-c2ccc(Cl)cc2)n1C(C)C
Second compound 0.0316 µM
  pIC50: < 6.00
Second compound 0.1 µM
  pIC50: < 6.00
Second compound 0.316 µM
  pIC50: < 6.00
Second compound 1 µM
  pIC50: < 6.00
Second compound 3.16 µM
  pIC50: < 6.00
Second compound 10 µM
  pIC50: < 6.00
Second compound 0.0316 µM, first compound 0.00316 µM
  viability, T/C: 94.8%
Second compound 0.0316 µM, first compound 0.01 µM
  viability, T/C: 97.2%
[1]
  viability, T/C: 95.6%
[2]
  viability, T/C: 93.3%
[3]
  viability, T/C: 98.4%
[4]
  viability, T/C: 103%
Second compound 0.1 µM, first compound 0.00316 µM
  viability, T/C: 101%
Second compound 0.1 µM, first compound 0.01 µM
  viability, T/C: 99.9%
[5]
  viability, T/C: 98.4%
[6]
  viability, T/C: 97.9%
[7]
  viability, T/C: 95.7%
[8]
  viability, T/C: 92.8%
Second compound 0.316 µM, first compound 0.00316 µM
  viability, T/C: 96.4%
Second compound 0.316 µM, first compound 0.01 µM
  viability, T/C: 91.8%
[9]
  viability, T/C: 89%
[10]
  viability, T/C: 99.3%
[11]
  viability, T/C: 96.6%
[12]
  viability, T/C: 85.8%
Second compound 1 µM, first compound 0.00316 µM
  viability, T/C: 96.6%
Second compound 1 µM, first compound 0.01 µM
  viability, T/C: 90.8%
[13]
  viability, T/C: 89.8%
[14]
  viability, T/C: 90.5%
[15]
  viability, T/C: 88.9%
[16]
  viability, T/C: 101%
Second compound 3.16 µM, first compound 0.00316 µM
  viability, T/C: 98.5%
Second compound 3.16 µM, first compound 0.01 µM
  viability, T/C: 88.1%
[17]
  viability, T/C: 84.5%
[18]
  viability, T/C: 85.5%
[19]
  viability, T/C: 89.9%
[20]
  viability, T/C: 82%
Second compound 10 µM, first compound 0.00316 µM
  viability, T/C: 94.7%
Second compound 10 µM, first compound 0.01 µM
  viability, T/C: 83.9%
[21]
  viability, T/C: 74.6%
[22]
  viability, T/C: 72.5%
[23]
  viability, T/C: 85.7%
[24]
  viability, T/C: 71.1%

## C#Cc1c(F)ccc2cc(O)cc(-c3ncc4c(N5CC6CCC(C5)N6)nc(OCC56CCCN5CC(F)C6)nc4c3F)c12 (centres undefined) + Cc1c(S(C)(=O)=O)c(-c2cc(F)cc(N3CCN(c4ccc(NS(=O)(=O)c5ccc(NC(CCN6CCC(C(=O)OCCCP(=O)(O)O)CC6)CSc6ccccc6)c(S(=O)(=O)C(F)(F)F)c5)cc4)CC3)c2)c(-c2ccc(Cl)cc2)n1C(C)C
Second compound 0.0316 µM
  pIC50: < 5.00
Second compound 0.1 µM
  pIC50: < 5.00
Second compound 0.316 µM
  pIC50: < 5.00
Second compound 1 µM
  pIC50: < 5.00
Second compound 3.16 µM
  pIC50: < 5.00
Second compound 10 µM
  pIC50: < 5.00
[1]
  viability, T/C: 93.6%
[2]
  viability, T/C: 101%
[3]
  viability, T/C: 89.2%
[4]
  viability, T/C: 99.9%
Second compound 0.0316 µM, first compound 3.16 µM
  viability, T/C: 102%
Second compound 0.0316 µM, first compound 10 µM
  viability, T/C: 99.3%
[5]
  viability, T/C: 92.4%
[6]
  viability, T/C: 92.6%
[7]
  viability, T/C: 90.6%
[8]
  viability, T/C: 99.4%
Second compound 0.1 µM, first compound 3.16 µM
  viability, T/C: 101%
Second compound 0.1 µM, first compound 10 µM
  viability, T/C: 90.8%
[9]
  viability, T/C: 93.8%
[10]
  viability, T/C: 85.2%
[11]
  viability, T/C: 91%
[12]
  viability, T/C: 102%
Second compound 0.316 µM, first compound 3.16 µM
  viability, T/C: 99.5%
Second compound 0.316 µM, first compound 10 µM
  viability, T/C: 87%
[13]
  viability, T/C: 92.7%
[14]
  viability, T/C: 86.6%
[15]
  viability, T/C: 88.2%
[16]
  viability, T/C: 96.9%
Second compound 1 µM, first compound 3.16 µM
  viability, T/C: 96.1%
Second compound 1 µM, first compound 10 µM
  viability, T/C: 87%
[17]
  viability, T/C: 83.9%
[18]
  viability, T/C: 84.5%
[19]
  viability, T/C: 88.8%
[20]
  viability, T/C: 92.3%
Second compound 3.16 µM, first compound 3.16 µM
  viability, T/C: 85.8%
Second compound 3.16 µM, first compound 10 µM
  viability, T/C: 84.1%
[21]
  viability, T/C: 78.2%
[22]
  viability, T/C: 76.9%
[23]
  viability, T/C: 81.1%
[24]
  viability, T/C: 97.5%
Second compound 10 µM, first compound 3.16 µM
  viability, T/C: 75.8%
Second compound 10 µM, first compound 10 µM
  viability, T/C: 68.3%

From PubChem BioAssay AID1963432 (Molecular Pharmacology Branch, DTP, NCI, 2024)
